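Dose response: 5 concentrations. Exposure: 48 h. Format: 96-well plates. Endpoint: linear interpolation; highest concentration if not reached. Definition used: TGI = concentration required for complete inhibition of growth.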
Assays:
Test in all cases: NCI anticancer screen, dose series, 48 h
786-0 renal = tested on: 786-0 renal
A498 renal = tested on: A498 renal
A549 NSCLC = tested on: A549 NSCLC
ACHN renal = tested on: ACHN renal
BT-549 breast = tested on: BT-549 breast
CAKI-1 renal = tested on: CAKI-1 renal
COLO 205 colon = tested on: COLO 205 colon
DU-145 prostate = tested on: DU-145 prostate
EKVX NSCLC = tested on: EKVX NSCLC
HCC-2998 colon = tested on: HCC-2998 colon
HCT-116 colon = tested on: HCT-116 colon
HCT-15 colon = tested on: HCT-15 colon
HL-60(TB) leukemia = tested on: HL-60(TB) leukemia
HOP-62 NSCLC = tested on: HOP-62 NSCLC
HOP-92 NSCLC = tested on: HOP-92 NSCLC
HS 578T breast = tested on: HS 578T breast
HT29 colon = tested on: HT29 colon
IGROV1 ovarian = tested on: IGROV1 ovarian
K-562 leukemia = tested on: K-562 leukemia
KM12 colon = tested on: KM12 colon
LOX IMVI melanoma = tested on: LOX IMVI melanoma
M14 melanoma = tested on: M14 melanoma
MALME-3M melanoma = tested on: MALME-3M melanoma
MCF7 breast = tested on: MCF7 breast
MDA-MB-231 breast = tested on: MDA-MB-231 breast
MDA-MB-435 = tested on: MDA-MB-435
MDA-N = tested on: MDA-N
MOLT-4 leukemia = tested on: MOLT-4 leukemia
NCI-H226 lung = tested on: NCI-H226 lung
NCI-H23 lung = tested on: NCI-H23 lung
NCI-H460 lung = tested on: NCI-H460 lung
NCI-H522 lung = tested on: NCI-H522 lung
NCI/ADR-RES ovarian = tested on: NCI/ADR-RES ovarian
OVCAR-3 ovarian = tested on: OVCAR-3 ovarian
OVCAR-4 ovarian = tested on: OVCAR-4 ovarian
OVCAR-5 ovarian = tested on: OVCAR-5 ovarian
OVCAR-8 ovarian = tested on: OVCAR-8 ovarian
PC-3 prostate = tested on: PC-3 prostate
RPMI-8226 leukemia = tested on: RPMI-8226 leukemia
RXF 393 renal = tested on: RXF 393 renal
SF-268 CNS = tested on: SF-268 CNS
SF-295 CNS = tested on: SF-295 CNS
SF-539 CNS = tested on: SF-539 CNS
SK-MEL-2 melanoma = tested on: SK-MEL-2 melanoma
SK-MEL-28 melanoma = tested on: SK-MEL-28 melanoma
SK-MEL-5 melanoma = tested on: SK-MEL-5 melanoma
SK-OV-3 ovarian = tested on: SK-OV-3 ovarian
SN12C renal = tested on: SN12C renal
SNB-19 CNS = tested on: SNB-19 CNS
SR leukemia = tested on: SR leukemia
SW-620 colon = tested on: SW-620 colon
T-47D breast = tested on: T-47D breast
TK-10 renal = tested on: TK-10 renal
U251 CNS = tested on: U251 CNS
UACC-257 melanoma = tested on: UACC-257 melanoma
UACC-62 melanoma = tested on: UACC-62 melanoma
UO-31 renal = tested on: UO-31 renal
CCRF-CEM leukemia = tested on: CCRF-CEM leukemia
SNB-75 CNS = tested on: SNB-75 CNS

`O=C(O)c1cc(-c2ccncc2)nc2ccccc12` gave a TGI (786-0 renal) greater than 100 µM, a TGI (A498 renal) greater than 100 µM and a TGI (A549 NSCLC) greater than 100 µM. The TGI (ACHN renal) was greater than 100 µM, the TGI (BT-549 breast) was greater than 100 µM and the TGI (CAKI-1 renal) was greater than 100 µM. For the same compound, the TGI (COLO 205 colon) was greater than 100 µM, the TGI (DU-145 prostate) was greater than 100 µM and the TGI (EKVX NSCLC) was greater than 100 µM. For the same compound, the TGI (HCC-2998 colon) was greater than 100 µM, the TGI (HCT-116 colon) was greater than 100 µM and the TGI (HCT-15 colon) was greater than 100 µM. For the same compound, the TGI (HL-60(TB) leukemia) was greater than 100 µM, the TGI (HOP-62 NSCLC) was greater than 100 µM and the TGI (HOP-92 NSCLC) was greater than 100 µM. It also gave a TGI (HS 578T breast) greater than 100 µM, a TGI (HT29 colon) greater than 100 µM and a TGI (IGROV1 ovarian) greater than 100 µM. It also gave a TGI (K-562 leukemia) greater than 100 µM, a TGI (KM12 colon) greater than 100 µM and a TGI (LOX IMVI melanoma) greater than 100 µM. For the same compound, the TGI (M14 melanoma) was greater than 100 µM, the TGI (MALME-3M melanoma) was greater than 100 µM and the TGI (MCF7 breast) was greater than 100 µM. It also gave a TGI (MDA-MB-231 breast) greater than 100 µM, a TGI (MDA-MB-435) greater than 100 µM and a TGI (MDA-N) greater than 100 µM. The TGI (MOLT-4 leukemia) was greater than 100 µM, the TGI (NCI-H226 lung) was greater than 100 µM and the TGI (NCI-H23 lung) was greater than 100 µM. The TGI (NCI-H460 lung) was greater than 100 µM, the TGI (NCI-H522 lung) was greater than 100 µM and the TGI (NCI/ADR-RES ovarian) was greater than 100 µM. The TGI (OVCAR-3 ovarian) was greater than 100 µM, the TGI (OVCAR-4 ovarian) was greater than 100 µM and the TGI (OVCAR-5 ovarian) was greater than 100 µM. The TGI (OVCAR-8 ovarian) was greater than 100 µM, the TGI (PC-3 prostate) was greater than 100 µM and the TGI (RPMI-8226 leukemia) was greater than 100 µM. The TGI (RXF 393 renal) was greater than 100 µM, the TGI (SF-268 CNS) was greater than 100 µM and the TGI (SF-295 CNS) was greater than 100 µM. The TGI (SF-539 CNS) was greater than 100 µM, the TGI (SK-MEL-2 melanoma) was greater than 100 µM and the TGI (SK-MEL-28 melanoma) was greater than 100 µM. It also gave a TGI (SK-MEL-5 melanoma) greater than 100 µM, a TGI (SK-OV-3 ovarian) greater than 100 µM and a TGI (SN12C renal) greater than 100 µM. For the same compound, the TGI (SNB-19 CNS) was greater than 100 µM, the TGI (SR leukemia) was greater than 100 µM and the TGI (SW-620 colon) was greater than 100 µM. For the same compound, the TGI (T-47D breast) was greater than 100 µM, the TGI (TK-10 renal) was greater than 100 µM and the TGI (U251 CNS) was greater than 100 µM. The TGI (UACC-257 melanoma) was greater than 100 µM, the TGI (UACC-62 melanoma) was greater than 100 µM and the TGI (UO-31 renal) was greater than 100 µM.
For `COc1ccc(OC2OC(COC(c3ccccc3)(c3ccc(OC)cc3)c3ccc(OC)cc3)C(O)C(O)C2O)cc1` (stereo unspecified), the TGI (786-0 renal) was 5.87 µM, the TGI (A498 renal) was 25.3 µM and the TGI (A549 NSCLC) was 11.8 µM. The TGI (ACHN renal) was 14.3 µM, the TGI (BT-549 breast) was 27 µM and the TGI (CAKI-1 renal) was 16.2 µM. For the same compound, the TGI (CCRF-CEM leukemia) was 5.39 µM, the TGI (COLO 205 colon) was 9.85 µM and the TGI (DU-145 prostate) was 35.7 µM. The TGI (EKVX NSCLC) was 17.3 µM, the TGI (HCC-2998 colon) was 16.4 µM and the TGI (HCT-116 colon) was 10.7 µM. It also gave a TGI (HCT-15 colon) of 46.4 µM, a TGI (HL-60(TB) leukemia) of 7.59 µM and a TGI (HOP-62 NSCLC) of 24.5 µM. The TGI (HS 578T breast) was 19.1 µM, the TGI (HT29 colon) was 5.96 µM and the TGI (IGROV1 ovarian) was 20.2 µM. The TGI (K-562 leukemia) was 10.2 µM, the TGI (KM12 colon) was 14.7 µM and the TGI (LOX IMVI melanoma) was 3.95 µM. For the same compound, the TGI (M14 melanoma) was 7.05 µM, the TGI (MALME-3M melanoma) was 21.2 µM and the TGI (MCF7 breast) was 14.7 µM. The TGI (MDA-MB-231 breast) was 18.1 µM, the TGI (MDA-MB-435) was 13 µM and the TGI (MDA-N) was 17.2 µM. It also gave a TGI (MOLT-4 leukemia) of 4.55 µM, a TGI (NCI-H226 lung) of 28.3 µM and a TGI (NCI-H23 lung) of 15.3 µM. The TGI (NCI-H460 lung) was 9.21 µM, the TGI (NCI-H522 lung) was 11.7 µM and the TGI (NCI/ADR-RES ovarian) was 29.2 µM. For the same compound, the TGI (OVCAR-3 ovarian) was 14.7 µM, the TGI (OVCAR-5 ovarian) was 20.7 µM and the TGI (PC-3 prostate) was 9.59 µM. It also gave a TGI (RPMI-8226 leukemia) greater than 100 µM, a TGI (SF-268 CNS) of 11 µM and a TGI (SF-295 CNS) of 15 µM. For the same compound, the TGI (SF-539 CNS) was 17 µM, the TGI (SK-MEL-2 melanoma) was 15 µM and the TGI (SK-MEL-28 melanoma) was 10.1 µM. It also gave a TGI (SK-MEL-5 melanoma) of 16.1 µM, a TGI (SK-OV-3 ovarian) of 18.8 µM and a TGI (SN12C renal) of 6.59 µM. The TGI (SNB-19 CNS) was 26.7 µM, the TGI (SNB-75 CNS) was 14 µM and the TGI (SR leukemia) was greater than 100 µM. It also gave a TGI (SW-620 colon) of 14.3 µM, a TGI (T-47D breast) of 21.4 µM and a TGI (U251 CNS) of 13.3 µM. It also gave a TGI (UACC-257 melanoma) of 20.1 µM, a TGI (UACC-62 melanoma) of 14.1 µM and a TGI (UO-31 renal) of 4.79 µM.
